# From PMC9050848, “Carbamoyl-N-aryl-imine-urea: a new framework to obtain a putative leishmanicidal drug-candidate” (RSC Advances, 2020)
# Key:
# [1] = Chemical stability in PBS pH 7.4; format: physicochemical; settings: PBS pH 7.4, 37 °C, 0 and 240 minutes
# Procedure: To investigate the potential plasma instability of the carbamoyl-N-arylimine-urea subunit, designed as a new peptide mimetic framework, compound 10e (LASSBio-1736) was selected to investigate its plasma stability,[21,22] previously to the evaluation of its in vivo leishmanicidal effect. Quantitation of 10e (LASSBio-1736), benzocaine standard (positive control; it means a substrate drug for plasma hydrolysis) and ketoconazole (internal standard) was determined by UPLC-MS/MS, after incubation of the compounds at 0, 30, 60, 120 and 240 min with rat plasma, and measuring the peak areas in three different experiments. […]
# final R1 factor for I >2σ(I ) 0.0594 final wR 2 factor for all data 0.1689 largest diff. peak / hole (e/Å 3) 0.220 and -0.256
# Chemical stability pH 7.4
# In a 10 mL tube, 5μL (250 ng/mL) of LASSBio-1736 (10e) (stock concentration = 10000 ng/mL solubilized in DMSO) was added in 195μ L of PBS (pH=7.4), and the mixture was placed in a shaker at 37 °C under vigorous stirring for 0 and 240 minutes. […]
# The samples were resuspended with 100 μL of a methanol:water mixture (7:3) […] and were placed in 2 mL vials, and analyzed by UPLC-MS. […]
# [2] = system: L. amazonensis; assay: Murine model of cutaneous leishmaniasis induced by L. amazonensis (efficacy); format: in vivo, BALB/c mice; settings: 30 μmol per kg per day × 28 days
# Procedure: So, BALB/c mice infected with L. amazonensis were treated during 28 days with compound 10e (30 μmol per kg per day, i.p.) or with the standards miltefosine (30 μmol per kg per day, p.o.) and meglumine antimoniate (30 μmol per kg per day, i.p.).
# This study (protocol number 2013.02) was approved by the Ethics Committee for Animal Experimentation of the Federal University of Alagoas (Brazil). All animals received humane care in compliance with the ‘Principles of laboratory animal care’ formulated by the National Society for Medical Research and the ‘Guide for the care and use of laboratory animals’ prepared by the National Academy of Sciences (Washington, DC). Then, 1 × 10^5 stationary promastigotes (5 days of culture in Schneider's medium) of L. amazonensis were inoculated subcutaneously into the right ear dermis of 6 week-old female BALB/c mice weighing ca. 20 g. and later treated with 10e (i.p.), miltefosine (p.o.) or meglumine antimoniate (i.p.) at 30 μmol kg^−1 × 28 days. The vehicle to solubilize 10e (LASSBio-1736) and standard drugs was Tween 20 (50 μL) and sterile water for injection, which was also administrated by i.p. route in two controls groups (non-infected control and infected control). The lesion size was measured using a paquimeter.[32] The parasite loads of infected ears and draining lymph nodes were determined using a quantitative limiting-dilution assay.[33] Toxicity was also evaluated due to alterations on spleen weight and by biochemistry dosages in plasma, performed according to the manufacturer's instructions (Doles, BRA). Data obtained from experiments were expressed as the mean ± S.E.M. and statistical differences between the treated and the vehicle groups of experiments were evaluated by ANOVA and Dunnett hoc tests.
compound,measurement,setting,value
"O=C(N/N=C/c1ccc(C(F)(F)F)cc1)NNC(=O)c1ccc(Cl)cc1Cl [LASSBio-1736 (10e), 2,4-dichloro-phenylcarbamoyl-N-4-trifluoromethylphenylimine-urea]",Stability to hydrolysis at PBS (pH 7.4),[1],stable to hydrolysis
same,Appearance of lesions on the first day after end of treatment (photographs),[2],complete healing of the nodules and ulcers
same,Lesion sizes of infected ear,"[2]; 10e and meglumine antimoniate i.p., miltefosine p.o.",reduced the lesion sizes of infected ear like miltefosine
same,L. amazonensis titer in draining lymph node,[2]; limiting-dilution assay,not reduced the L. amazonensis titer in draining lymph node
same,Parasite load in infected ear,[2]; limiting-dilution assay,decreased parasite load in infected ear
